These results are taken from PubChem BioAssay (NCI).

Test systems include 786-0 renal; ACHN renal; HCC-2998 colon; HL-60(TB) leukemia; MCF7 breast; NCI-H226 lung; NCI-H23 lung; OVCAR-4 ovarian; OVCAR-5 ovarian; PC-3 prostate; SK-MEL-5 melanoma; SNB-19 CNS; SR leukemia; TK-10 renal; U251 CNS; UACC-257 melanoma; UACC-62 melanoma.
What all share (assay): DTP human tumour cell line panel, 48 h

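A five-concentration, 48-hour dose response in 96-well plates underlies each endpoint, interpolated linearly between surrounding concentrations. The concentration for full growth arrest is given as TGI.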 Where only a bound is given, the exact number is not on record here.

One may read the TGI as the concentration at which net growth stops. High values mean less potent growth arrest, low ones more potent growth arrest. `Cc1ccc(OCC2OC(n3cnc4c(Cl)nc(Cl)nc43)CC2Oc2ccc(C)cc2)cc1` (stereo not drawn): the TGI worked out at 32.4 µM with 786-0 renal; 2.66 µM with ACHN renal; 30.8 µM with HCC-2998 colon; 6.53 µM with HL-60(TB) leukemia; 4.01 µM in the experiment on MCF7 breast; 14.3 µM in the experiment on NCI-H226 lung. The total growth inhibition concentration (TGI) with NCI-H23 lung is 3.91 µM; in the experiment with OVCAR-4 ovarian, 4.45 µM; in the experiment on OVCAR-5 ovarian, 19.1 µM; in the experiment with PC-3 prostate it was 6.57 µM; in the experiment on SK-MEL-5 melanoma it was 19.2 µM; in the experiment with SNB-19 CNS it was 3.3 µM. The TGI in the experiment on SR leukemia was determined as 5.17 µM; in the experiment on TK-10 renal, 23.3 µM; in the experiment on U251 CNS it was 4.91 µM; in the experiment with UACC-257 melanoma, 6.59 µM; in the experiment on UACC-62 melanoma it was 4.1 µM.

Turning to `O=C(CCc1ccccc1)n1cccc1CO`, the TGI in the experiment on 786-0 renal, with ACHN renal, in the experiment with HCC-2998 colon, in the experiment with HL-60(TB) leukemia, with MCF7 breast and in the experiment with NCI-H226 lung was > 100 µM throughout. Also, the TGI with NCI-H23 lung, in the experiment with OVCAR-4 ovarian, in the experiment on OVCAR-5 ovarian, with PC-3 prostate, in the experiment with SK-MEL-5 melanoma and in the experiment with SNB-19 CNS was > 100 µM each time. In addition, the TGI in the experiment on SR leukemia, in the experiment with TK-10 renal, in the experiment on U251 CNS, in the experiment with UACC-257 melanoma and with UACC-62 melanoma was > 100 µM throughout.

As to `CC(C)C[C@H](NC(=O)[C@H](Cc1ccc(F)cc1)NC(=O)c1ccccn1)B(O)O`, the TGI with 786-0 renal is < 0.01 µM; in the experiment on ACHN renal, 0.0465 µM; in the experiment with HCC-2998 colon, < 0.01 µM; with HL-60(TB) leukemia, > 100 µM; with MCF7 breast, 0.166 µM; with NCI-H226 lung, < 0.01 µM. The total growth inhibition concentration (TGI) in the experiment on NCI-H23 lung was < 0.01 µM; with OVCAR-4 ovarian it was < 0.0326 µM; in the experiment on OVCAR-5 ovarian, < 0.01 µM; with PC-3 prostate, < 0.01 µM; in the experiment with SK-MEL-5 melanoma it was < 0.01 µM; in the experiment on SNB-19 CNS, > 33.4 µM. Moreover, the TGI in the experiment on SR leukemia was < 0.01 µM; in the experiment on TK-10 renal it was 0.0193 µM; in the experiment with U251 CNS, 0.106 µM; in the experiment with UACC-257 melanoma, < 0.01 µM; in the experiment with UACC-62 melanoma it was < 0.01 µM.

For the compound `CCN(CC)C1C(=O)NC1C#Cc1ccccc1` (stereo not drawn), the TGI in the experiment with 786-0 renal, in the experiment with ACHN renal, with HCC-2998 colon, in the experiment with HL-60(TB) leukemia, with MCF7 breast and in the experiment with NCI-H226 lung was > 100 µM throughout. Further, the TGI in the experiment on NCI-H23 lung, in the experiment with OVCAR-4 ovarian, in the experiment on OVCAR-5 ovarian, with PC-3 prostate, with SK-MEL-5 melanoma and with SNB-19 CNS was > 100 µM throughout. In addition, the TGI in the experiment with SR leukemia, with TK-10 renal, with U251 CNS, in the experiment on UACC-257 melanoma and in the experiment with UACC-62 melanoma was > 100 µM in each case.

As for `COC(=O)C1Cc2ccc3c(c2C1=O)CCCC3` (stereo not drawn), the TGI in the experiment on 786-0 renal, in the experiment on ACHN renal, in the experiment on HCC-2998 colon, in the experiment on HL-60(TB) leukemia, in the experiment on MCF7 breast and with NCI-H226 lung was > 100 µM throughout. For the same compound, the TGI with NCI-H23 lung, in the experiment with OVCAR-4 ovarian, with OVCAR-5 ovarian, with PC-3 prostate, in the experiment on SK-MEL-5 melanoma and in the experiment with SNB-19 CNS was > 100 µM in each case. Also, the TGI is 82.9 µM in the experiment with SR leukemia; > 100 µM in the experiment with TK-10 renal; > 100 µM in the experiment on U251 CNS; > 100 µM with UACC-257 melanoma; > 100 µM in the experiment with UACC-62 melanoma.

Regarding `O=c1[nH]nc(-c2ccccc2)n1/N=C/c1ccccc1Cl`, the TGI in the experiment with 786-0 renal is > 100 µM; in the experiment on ACHN renal it was > 100 µM; in the experiment on HCC-2998 colon it was > 100 µM; in the experiment on HL-60(TB) leukemia, 48 µM; in the experiment with MCF7 breast, > 100 µM; in the experiment on NCI-H226 lung, > 100 µM. Further, the TGI in the experiment on NCI-H23 lung was 87.7 µM; in the experiment with OVCAR-4 ovarian, > 100 µM; in the experiment with OVCAR-5 ovarian, > 100 µM; in the experiment with PC-3 prostate, 57.6 µM; in the experiment on SK-MEL-5 melanoma, 36.1 µM; in the experiment on SNB-19 CNS, > 100 µM. Also, the TGI with SR leukemia is 85.6 µM; with TK-10 renal it was > 100 µM; with U251 CNS, > 100 µM; in the experiment with UACC-257 melanoma it was > 100 µM; in the experiment with UACC-62 melanoma, 46.5 µM.

As to `O=C1c2ccccc2C2C1C(c1ccccc1)C1(Cc3ccccc3C1=O)C2c1ccccc1` (stereo not drawn), the TGI is > 100 µM in the experiment on 786-0 renal; > 100 µM with ACHN renal; > 100 µM in the experiment with HCC-2998 colon; 35.6 µM with HL-60(TB) leukemia; > 100 µM in the experiment with MCF7 breast; > 100 µM in the experiment with NCI-H226 lung. Moreover, the TGI with NCI-H23 lung, in the experiment with OVCAR-4 ovarian, in the experiment with OVCAR-5 ovarian, in the experiment on PC-3 prostate, in the experiment with SK-MEL-5 melanoma and in the experiment with SNB-19 CNS was > 100 µM in each case. Besides, the total growth inhibition concentration (TGI) in the experiment with SR leukemia, with TK-10 renal, in the experiment with U251 CNS, in the experiment on UACC-257 melanoma and in the experiment on UACC-62 melanoma was > 100 µM in each case.

On to `O=c1cc(N=Nc2ccc(Cl)c(Cl)c2)[nH]c(=O)[nH]1`, for which the concentration for total growth inhibition (TGI) with 786-0 renal stood at 2.86 µM; in the experiment with ACHN renal, 2.98 µM; in the experiment with HCC-2998 colon, 6.35 µM; in the experiment with HL-60(TB) leukemia, 0.941 µM; in the experiment with MCF7 breast, 3.99 µM; in the experiment with NCI-H226 lung, 33.2 µM. Further, the TGI with NCI-H23 lung was determined as 10.7 µM; with OVCAR-4 ovarian, 8.08 µM; in the experiment with OVCAR-5 ovarian it was 11.2 µM; in the experiment on PC-3 prostate, 13.6 µM; with SK-MEL-5 melanoma it was 10.2 µM; in the experiment with SNB-19 CNS, 26.6 µM. Besides, the TGI was 1.54 µM with SR leukemia; 3.18 µM in the experiment with TK-10 renal; 3.65 µM with U251 CNS; 6.15 µM with UACC-257 melanoma; 4.61 µM with UACC-62 melanoma.

`O=S1(=O)OCCOS(=O)(=O)C1Cc1cccc2ccccc12`: the TGI with 786-0 renal came to 54.8 µM; with ACHN renal it was 99.6 µM; in the experiment with HCC-2998 colon, 43 µM; in the experiment on HL-60(TB) leukemia, 29.9 µM; with MCF7 breast, 37.6 µM; with NCI-H226 lung it was 36.3 µM. The total growth inhibition concentration (TGI) in the experiment with NCI-H23 lung is 79.5 µM; in the experiment on OVCAR-4 ovarian, 47 µM; in the experiment with OVCAR-5 ovarian, 60.9 µM; in the experiment with PC-3 prostate it was > 100 µM; in the experiment on SK-MEL-5 melanoma, 28.2 µM; in the experiment with SNB-19 CNS, 87.3 µM. For the same compound, the TGI was 64.9 µM in the experiment with SR leukemia; > 100 µM in the experiment on TK-10 renal; 40.7 µM with U251 CNS; 34.2 µM with UACC-257 melanoma; 57.2 µM in the experiment on UACC-62 melanoma.

Turning to `Cc1ccnc2[nH]c(-c3ccc(F)cc3)cc(=O)c12`, the TGI in the experiment with 786-0 renal was > 100 µM; with ACHN renal it was > 100 µM; with HCC-2998 colon, > 100 µM; in the experiment on HL-60(TB) leukemia, 38.5 µM; in the experiment on MCF7 breast, > 100 µM; in the experiment with NCI-H226 lung it was > 100 µM. Also, the TGI in the experiment with NCI-H23 lung, with OVCAR-4 ovarian, in the experiment on OVCAR-5 ovarian, in the experiment with PC-3 prostate, with SK-MEL-5 melanoma and in the experiment on SNB-19 CNS was > 100 µM throughout. In addition, the TGI is 25.9 µM in the experiment on SR leukemia; > 100 µM in the experiment with TK-10 renal; > 100 µM in the experiment with U251 CNS; > 100 µM in the experiment on UACC-257 melanoma; > 100 µM with UACC-62 melanoma.

With `COc1cc(/C=C\c2nnc(/C=C\c3ccc(O)c(OC)c3)s2)ccc1O`, the TGI was > 100 µM in the experiment with 786-0 renal; 22.3 µM in the experiment with ACHN renal; 12.9 µM in the experiment on HCC-2998 colon; 5.45 µM in the experiment with HL-60(TB) leukemia; 11.3 µM in the experiment with MCF7 breast; 39 µM with NCI-H226 lung. Besides, the TGI in the experiment on NCI-H23 lung is 12.2 µM; in the experiment on OVCAR-4 ovarian, 19.9 µM; with OVCAR-5 ovarian it was 48.8 µM; in the experiment with PC-3 prostate, > 64.3 µM; with SK-MEL-5 melanoma it was 3.42 µM; in the experiment on SNB-19 CNS it was > 82.1 µM. The TGI in the experiment with SR leukemia is 7.37 µM; in the experiment with TK-10 renal, > 51.2 µM; in the experiment with U251 CNS, 17.1 µM; in the experiment on UACC-257 melanoma it was > 30.7 µM; with UACC-62 melanoma, 18.8 µM.

Regarding `CSc1nc(C)c(CCOC(C)=O)c(Cl)n1`, the TGI in the experiment with 786-0 renal, in the experiment on ACHN renal, in the experiment with HCC-2998 colon, in the experiment on HL-60(TB) leukemia, in the experiment on MCF7 breast and in the experiment with NCI-H226 lung was > 100 µM throughout. Also, the TGI in the experiment on NCI-H23 lung, with OVCAR-4 ovarian, in the experiment with OVCAR-5 ovarian, with PC-3 prostate, with SK-MEL-5 melanoma and with SNB-19 CNS was > 100 µM each time. Besides, the TGI in the experiment with SR leukemia, in the experiment on TK-10 renal, in the experiment on U251 CNS, in the experiment with UACC-257 melanoma and in the experiment on UACC-62 melanoma was > 100 µM in each case.

Regarding `COc1cc2c(cc1O)C1(Cc3ccc4c(c3C1=O)OCO4)N(C)CC2` (stereo not drawn), the TGI in the experiment with 786-0 renal, in the experiment with ACHN renal, with HCC-2998 colon, in the experiment with HL-60(TB) leukemia, with MCF7 breast and with NCI-H226 lung was > 100 µM each time. Besides, the concentration for total growth inhibition (TGI) in the experiment on NCI-H23 lung, in the experiment on OVCAR-4 ovarian, with OVCAR-5 ovarian, in the experiment with PC-3 prostate, with SK-MEL-5 melanoma and in the experiment on SNB-19 CNS was > 100 µM throughout. In addition, the total growth inhibition concentration (TGI) with SR leukemia, in the experiment with TK-10 renal, in the experiment on U251 CNS, with UACC-257 melanoma and in the experiment on UACC-62 melanoma was > 100 µM each time.

For the compound `CC(=O)c1ccc2c(c1)CC1(C2)Cc2ccc3c(c2C1=O)CCC3` (stereo not drawn), the TGI in the experiment on 786-0 renal is 40.8 µM; in the experiment with ACHN renal it was > 100 µM; with HCC-2998 colon, 37.8 µM; in the experiment with HL-60(TB) leukemia it was 48.3 µM; in the experiment on MCF7 breast, 72 µM; in the experiment with NCI-H226 lung it was > 100 µM. Besides, the TGI is > 100 µM in the experiment on NCI-H23 lung; > 100 µM with OVCAR-4 ovarian; > 100 µM with OVCAR-5 ovarian; > 100 µM in the experiment with PC-3 prostate; 28.4 µM in the experiment on SK-MEL-5 melanoma; > 100 µM with SNB-19 CNS. The total growth inhibition concentration (TGI) with SR leukemia was > 100 µM; in the experiment on TK-10 renal, 64.2 µM; in the experiment with U251 CNS, > 100 µM; in the experiment on UACC-257 melanoma, 38.2 µM; in the experiment on UACC-62 melanoma it was 74.7 µM.
